From ChEMBL document CHEMBL4673371, “Discovery of BAZ1A bromodomain inhibitors with the aid of virtual screening and activity evaluation” (Bioorg Med Chem Lett, 2021)

How the values were obtained:
[1] = target: T1, Bromodomain adjacent to zinc finger domain protein 1A (Homo sapiens, UniProt Q9NRL2); assay: Binding affinity to recombinant human N-terminal His6-tagged BAZ1A (1446 to 1516 residues) expressed in Escherichia coli BL21 (DE3) cells by MST assay
[2] = target: T1, Bromodomain adjacent to zinc finger domain protein 1A; assay: Binding affinity to recombinant human N-terminal His6-tagged BAZ1A (1446 to 1516 residues) expressed in Escherichia coli BL21 (DE3) cells assessed as change in melting temperature at 25 uM by DSF assay
[3] = test system: U-87 MG; assay: Cytotoxicity against human U87 cells assessed as reduction in cell viability incubated for 72 hrs by MTT assay; format: functional, cell-based, U-87MG ATCC
[4] = test system: Bel-7402; assay: Cytotoxicity against human BEL7402 cells assessed as reduction in cell viability incubated for 72 hrs by MTT assay; format: functional, cell-based; conditions: Bel-7402, 72 h
[5] = Cytotoxicity against human H820 cells assessed as reduction in cell viability incubated for 72 hrs by MTT assay; format: functional, cell-based; conditions: NCI-H820, 72 h
[6] = test system: NCI-H1975; assay: Cytotoxicity against human H1975 cells assessed as reduction in cell viability incubated for 72 hrs by MTT assay; format: functional, cell-based; conditions: NCI-H1975, 72 h
[7] = test system: BT-474; assay: Cytotoxicity against human BT474 cells assessed as reduction in cell viability incubated for 72 hrs by MTT assay; format: functional, cell-based; conditions: BT-474, 72 h
[8] = test system: ZR-75-30; assay: Cytotoxicity against human ZR-75-30 cells assessed as reduction in cell viability incubated for 72 hrs by MTT assay; format: functional, cell-based; conditions: ZR-75-30, 72 h
[9] = test system: THP-1; assay: Cytotoxicity against human THP-1 cells assessed as reduction in cell viability incubated for 72 hrs by MTT assay; format: functional, cell-based; conditions: THP-1, 72 h

T1 sequence (Q9NRL2 whole entry, the tested form may be a part): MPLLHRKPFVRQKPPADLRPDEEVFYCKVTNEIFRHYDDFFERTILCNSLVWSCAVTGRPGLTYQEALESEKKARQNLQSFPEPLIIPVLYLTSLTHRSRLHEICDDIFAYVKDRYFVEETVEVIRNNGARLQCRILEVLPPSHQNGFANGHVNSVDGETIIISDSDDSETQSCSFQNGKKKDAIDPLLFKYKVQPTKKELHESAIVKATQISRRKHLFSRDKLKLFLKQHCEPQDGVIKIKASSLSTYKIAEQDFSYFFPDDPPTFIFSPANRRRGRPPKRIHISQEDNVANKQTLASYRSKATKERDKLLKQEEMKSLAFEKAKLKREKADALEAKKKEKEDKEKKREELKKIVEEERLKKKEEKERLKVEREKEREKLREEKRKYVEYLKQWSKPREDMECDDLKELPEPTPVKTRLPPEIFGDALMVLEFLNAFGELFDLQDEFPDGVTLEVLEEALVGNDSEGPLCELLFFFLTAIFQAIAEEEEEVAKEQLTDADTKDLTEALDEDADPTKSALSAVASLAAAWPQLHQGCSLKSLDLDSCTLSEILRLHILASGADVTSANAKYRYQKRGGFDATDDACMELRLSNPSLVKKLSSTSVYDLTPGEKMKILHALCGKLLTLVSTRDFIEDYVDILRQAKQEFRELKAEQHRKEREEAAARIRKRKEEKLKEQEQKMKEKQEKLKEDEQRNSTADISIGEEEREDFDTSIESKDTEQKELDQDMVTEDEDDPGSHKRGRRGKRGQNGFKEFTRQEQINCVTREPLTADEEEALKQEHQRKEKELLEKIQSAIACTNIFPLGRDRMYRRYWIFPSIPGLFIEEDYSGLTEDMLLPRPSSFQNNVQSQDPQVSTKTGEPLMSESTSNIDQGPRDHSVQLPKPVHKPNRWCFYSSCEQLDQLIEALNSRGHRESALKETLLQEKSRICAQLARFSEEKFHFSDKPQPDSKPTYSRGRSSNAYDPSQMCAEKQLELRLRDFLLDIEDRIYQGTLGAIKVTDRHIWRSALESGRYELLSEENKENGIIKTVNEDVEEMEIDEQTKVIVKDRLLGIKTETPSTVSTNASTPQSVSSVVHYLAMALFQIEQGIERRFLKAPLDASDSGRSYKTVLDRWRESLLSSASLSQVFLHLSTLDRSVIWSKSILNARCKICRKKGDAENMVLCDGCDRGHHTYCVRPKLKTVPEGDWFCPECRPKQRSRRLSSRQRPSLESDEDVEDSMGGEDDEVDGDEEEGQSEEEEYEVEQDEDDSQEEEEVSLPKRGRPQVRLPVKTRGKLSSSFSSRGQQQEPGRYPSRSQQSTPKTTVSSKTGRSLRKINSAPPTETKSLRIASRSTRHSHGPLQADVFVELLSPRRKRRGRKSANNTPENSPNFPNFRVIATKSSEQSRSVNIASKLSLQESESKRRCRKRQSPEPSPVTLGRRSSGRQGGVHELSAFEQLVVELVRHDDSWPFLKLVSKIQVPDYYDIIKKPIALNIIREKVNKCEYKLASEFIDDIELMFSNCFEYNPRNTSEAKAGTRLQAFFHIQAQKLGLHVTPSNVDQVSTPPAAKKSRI

Row | Structure (SMILES) | Kd [1] [µM] | ΔTm [2] [°C] | also measured
1 | Cc1ccc2nc(-c3ccc(NC(=O)c4ccc([N+](=O)[O-])o4)cc3)oc2c1 | 26.6 | 1.9 | 
2 | O=C(Nc1cccc([N+](=O)[O-])c1)Nc1ccc2c(c1)C(=O)CC2 | 22 | 1.16 | 
3 | O=C(Nc1cccc([N+](=O)[O-])c1)Nc1ccc2c(c1)OCCO2 | 1.36 | 1.62 | 
4 | O=C(Nc1ccc(Cl)c(Cl)c1)Nc1ccc2nnsc2c1 | 1.57 | 2.59 | 
5 | CN(C)c1ccc(NC(=O)Nc2cccc([N+](=O)[O-])c2)cc1 | 1.76 | 1.56 | 
6 | O=C(Nc1ccc2nnsc2c1)N(O)c1ccccc1 | 16.3 | 1.68 | 
7 | C=C(C)C(=O)Nc1ccc(-c2nc3cc(NC(=O)C(=C)C)ccc3[nH]2)cc1 | 15.2 | 1.61 | 
8 | O=C(Nc1ccc2cncnc2c1)Nc1ccc2nnsc2c1 | 3.93 | 1.94 | 
9 | NC(C(=O)Nc1ccc2nnsc2c1)c1ccccc1 (centres undefined) | 1.87 | 1.25 | 
10 | O=C(Nc1ccc(C(F)(F)F)cc1)Nc1cccc(O)c1 | 13.2 | 3.15 | 
11 | CN(Cc1cccc([N+](=O)[O-])c1)C(=O)Nc1ccc2nnsc2c1 | 57.6 | 1.46 | 
12 | CC(NC(=O)Nc1ccc2nnsc2c1)c1cccc(F)c1 (centres undefined) | 8.2 | 1.62 | 
13 | O=C(Nc1cccc([N+](=O)[O-])c1)Nc1nc(-c2ccccc2)cs1 | 0.52 | 2.73 | IC50 [3]: > 100 µM; IC50 [4]: > 100 µM; IC50 [5]: 73.7 µM; IC50 [6]: 7.7 µM; IC50 [7]: 10.7 µM; IC50 [8]: 4.29 µM; IC50 [9]: 5.08 µM
14 | O=C(Nc1cccc([N+](=O)[O-])c1)Nc1ccc2nccnc2c1 | 3.09 | 1.64 | 
15 | O=C(Nc1cccc([N+](=O)[O-])c1)Nc1ccc2cccnc2c1 | 6.68 | 1.63 | 
16 | O=C(NCC(=O)N1CCCCC1)Nc1ccc2nnsc2c1 | 25.6 | 1.2 | 
